The text below walks through data of publication PMC7930720, “Functional Expression of the Human Glucose Transporters GLUT2 and GLUT3 in Yeast Offers Novel Screening Systems for GLUT-Targeting Drugs” (Frontiers in Molecular Biosciences, 2021).

As usually defined, the IC50 is the point on the concentration scale where inhibition reaches its midpoint. High values mean a need for much substance, low ones inhibition by little substance.

Format in all cases: cell-based
The target in assay [1] is T1, GLUT2 (Homo sapiens, UniProt P11168, A89S/DEL55-88/Q455R).
T1 construct: gene SLC2A2
T1 sequence (P11168 with tags, fused parts or gaps DEL55-88/A89S/Q455R): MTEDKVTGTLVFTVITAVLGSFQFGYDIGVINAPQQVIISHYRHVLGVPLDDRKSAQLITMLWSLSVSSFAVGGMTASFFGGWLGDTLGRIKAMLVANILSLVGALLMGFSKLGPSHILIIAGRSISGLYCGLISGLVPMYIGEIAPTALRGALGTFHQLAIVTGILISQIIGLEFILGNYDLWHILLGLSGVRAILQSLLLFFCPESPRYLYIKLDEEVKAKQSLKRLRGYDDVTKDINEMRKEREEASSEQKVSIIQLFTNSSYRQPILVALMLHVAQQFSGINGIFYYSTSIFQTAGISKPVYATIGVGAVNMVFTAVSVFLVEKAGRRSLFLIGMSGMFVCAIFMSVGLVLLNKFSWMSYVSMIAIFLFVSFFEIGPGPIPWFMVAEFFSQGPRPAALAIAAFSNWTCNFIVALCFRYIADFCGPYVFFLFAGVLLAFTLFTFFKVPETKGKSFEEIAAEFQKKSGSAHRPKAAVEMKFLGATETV
As to the kind of experiment: inhibition of […]-glucose ([…]) uptake in hxt0 EBY.S7 yeast expressing the transporter; growth assay.

The target of assay [2] is T2, GLUT3 (Homo sapiens, UniProt P11169, S66Y).
T2 construct: gene SLC2A3; GLUT3S66Y
T2 sequence (P11169 1-496 S66Y): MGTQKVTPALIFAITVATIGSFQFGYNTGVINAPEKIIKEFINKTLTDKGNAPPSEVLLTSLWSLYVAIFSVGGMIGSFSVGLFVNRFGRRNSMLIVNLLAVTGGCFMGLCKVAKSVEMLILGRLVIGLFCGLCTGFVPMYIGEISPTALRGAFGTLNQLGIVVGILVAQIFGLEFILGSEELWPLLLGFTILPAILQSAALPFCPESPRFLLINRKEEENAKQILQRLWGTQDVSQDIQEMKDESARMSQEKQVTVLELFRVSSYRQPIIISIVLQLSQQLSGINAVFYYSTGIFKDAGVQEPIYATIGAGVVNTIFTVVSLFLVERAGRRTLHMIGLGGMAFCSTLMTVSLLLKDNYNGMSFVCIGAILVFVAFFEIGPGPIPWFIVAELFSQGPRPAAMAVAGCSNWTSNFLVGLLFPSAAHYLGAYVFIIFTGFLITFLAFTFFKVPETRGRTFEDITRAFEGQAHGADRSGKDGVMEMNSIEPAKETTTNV
Described as above.

In assay [3] the target is T2, GLUT3. Nature of the assay: inhibition of […]-glucose ([…]) uptake in hxt0 EBY.S7 yeast expressing the transporter.
Assay [4] has as its target T1, GLUT2. The assay is described as above.

`O=C(CCc1ccc(O)cc1)c1c(O)cc(O)cc1O` [phloretin]: the values for the IC50 in assay [1] and in assay [2] were 1070 ± 110 nM and 22.4 ± 1.8 µM, respectively.

In the case of `O=c1c(O)c(-c2ccc(O)c(O)c2)oc2cc(O)cc(O)c12` [quercetin], the results for the IC50 in assay [3] and in assay [4] were 11.6 ± 0.6 µM and 3.22 ± 0.45 µM, respectively.
